Measured values as given in US9216991B2 (Ares Trading S.A., priority 2012, dated 2015).
Counter-ions that a name gives are not always drawn.

Target: T1, IRAK4 (Homo sapiens, UniProt Q9NWZ3)
T1 construct: His (N); TEV cleavage site (N)
T1 sequence (Q9NWZ3 1-460): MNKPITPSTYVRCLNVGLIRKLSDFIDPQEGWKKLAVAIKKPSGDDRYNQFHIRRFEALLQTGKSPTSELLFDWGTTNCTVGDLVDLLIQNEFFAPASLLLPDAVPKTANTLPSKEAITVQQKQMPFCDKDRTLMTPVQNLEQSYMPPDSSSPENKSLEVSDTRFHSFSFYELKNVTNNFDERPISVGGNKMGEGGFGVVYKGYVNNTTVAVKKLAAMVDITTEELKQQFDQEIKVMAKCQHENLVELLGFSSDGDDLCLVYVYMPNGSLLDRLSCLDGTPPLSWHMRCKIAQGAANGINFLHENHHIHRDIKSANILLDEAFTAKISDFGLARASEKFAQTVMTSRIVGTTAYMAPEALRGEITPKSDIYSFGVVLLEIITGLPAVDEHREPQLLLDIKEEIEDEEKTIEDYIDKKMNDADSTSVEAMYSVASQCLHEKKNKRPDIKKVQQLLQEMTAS
Test: IRAK4 Enzymatic Assay
Assay type: biochemical
Conditions: His-TEV-IRAK4 20 ng/well, ATP 2 μM, STK1-biotin peptide 300 nM, 3 hours at 30° C., FlashPlate radioactivity
Procedure, shortened: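 Radiometric FlashPlate readout: biotin-STK1 substrate (300 nM) captured on streptavidin after EDTA stop and washes. Reaction used His-TEV-IRAK4 (20 ng/well), 2 μM [^33P]-spiked ATP and compound (1 nM-20 μM), incubated 3 h at 30 °C in 50 mM HEPES pH 7.0, 10 mM MgCl2, 5 mM MnCl2, 2 mM DTT.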

Q: With `Cn1cc(-c2cccc(-c3ncc(-c4cnn([C@@H]5CCC[C@@H](O)C5)c4)cn3)c2)cn1` (relative stereo) [Example 290, Trans-3-(4-{2-[3-(1-Methyl-1H-pyrazol-4-yl)-phenyl]-pyrimidin-5-yl}-pyrazol-1-yl)-cyclohexanol] as the compound, how does the IC50 read?
A: The IC50 was 100 to 1000 nM.

Q: For `Cn1cc(-c2cccc(-c3ncc(-c4cnn([C@H]5CC[C@]6(CCC(=O)N6)CC5)c4)cn3)c2)cn1` [Example 250, cis-8-(4-{2-[3-(1-Methyl-1H-pyrazol-4-yl)-phenyl]-pyrimidin-5-yl}-pyrazol-1-yl)-1-aza-spiro[4.5]decan-2-one], which IC50 is on record?
A: The IC50 was < 100 nM.

Q: For `CO[C@H]1CC[C@@H](n2cc(-c3cnc(-c4cccc(-c5cnn(C)c5)c4)nc3)cn2)CC1` [Example 252, Cis-5-[1-(4-Methoxy-cyclohexyl)-1H-pyrazol-4-yl]-2-[3-(1-methyl-1H-pyrazol-4-yl)-phenyl]-pyrimidine], which IC50 is on record?
A: Its IC50 is < 100 nM.

Q: With `CO[C@H]1CC[C@H](n2cc(-c3cnc(-c4cccc(-c5cnn(C)c5)c4)nc3)cn2)CC1` [Example 253, trans-5-[1-(4-Methoxy-cyclohexyl)-1H-pyrazol-4-yl]-2-[3-(1-methyl-1H-pyrazol-4-yl)-phenyl]-pyrimidine] as the compound, how does the IC50 read?
A: The IC50 was < 100 nM.

Q: Which IC50 does the source give for `Cn1cc(-c2cccc(-c3ncc(-c4cnn([C@H]5CC[C@H](N6CCOCC6=O)CC5)c4)cn3)c2)cn1` [Example 254, 4-[4-(4-{2-[3-(1-Methyl-1H-pyrazol-4-yl)-phenyl]-pyrimidin-5-yl}-pyrazol-1-yl)-cyclohexyl]-morpholin-3-one] here?
A: The IC50 was < 100 nM.

Q: Which IC50 does the source give for `Cn1cc(-c2cccc(-c3ncc(-c4cnn([C@H]5CC[C@H](N6CCOC6=O)CC5)c4)cn3)c2)cn1` [Example 255, 3-[4-(4-{2-[3-(1-Methyl-1H-pyrazol-4-yl)-phenyl]-pyrimidin-5-yl}-pyrazol-1-yl)-cyclohexyl]-oxazolidin-2-one] here?
A: The IC50 was 100 to 1000 nM.

Q: With `Cc1cc(-c2cccc(-c3ncc(-c4cnn([C@H]5CC[C@H](CO)CC5)c4)cn3)c2)cnn1` [Example 256, Trans-[4-(4-{2-[3-(6-Methyl-pyridazin-4-yl)-phenyl]-pyrimidin-5-yl}-pyrazol-1-yl)-cyclohexyl]-methanol] as the compound, how does the IC50 read?
A: Its IC50 is < 100 nM.

Q: For `Cn1cc(-c2cccc(-c3ncc(-c4cnn([C@H]5CC[C@](O)(CO)CC5)c4)cn3)c2)cn1` [Example 258, Cis-1-Hydroxymethyl-4-(4-{2-[3-(1-methyl-1H-pyrazol-4-yl)-phenyl]-pyrimidin-5-yl}-pyrazol-1-yl)-cyclohexanol], which IC50 is on record?
A: The IC50 was < 100 nM.

Q: For `Cn1cc(-c2cccc(-c3ncc(-c4cnn(C5CCNCC5(F)F)c4)cn3)c2)cn1` (centres unmarked) [Example 259, 5-[1-(3,3-Difluoro-piperidin-4-yl)-1H-pyrazol-4-yl]-2-[3-(1-methyl-1H-pyrazol-4-yl)-phenyl]-pyrimidine], which IC50 is on record?
A: Its IC50 is 100 to 1000 nM.

Q: With `CN1C[C@]2(CC[C@H](n3cc(-c4cnc(-c5cccc(-c6cnn(C)c6)c5)nc4)cn3)CC2)CC1=O` [Example 260, trans-2-Methyl-8-(4-{2-[3-(1-methyl-1H-pyrazol-4-yl)-phenyl]-pyrimidin-5-yl}-pyrazol-1-yl)-2-aza-spiro[4.5]decan-3-one] as the compound, how does the IC50 read?
A: Its IC50 is < 100 nM.

Q: Which IC50 does the source give for `Cn1cc(-c2cccc(-c3ncc(-c4cnn(C5CCC(C(=O)N6CCO[C@H](CO)C6)CC5)c4)cn3)c2)cn1` (stereo partly drawn) [Example 261, ((S)-2-Hydroxymethyl-morpholin-4-yl)-[4-((S)-4-{2-[3-(1-methyl-1H-pyrazol-4-yl)-phenyl]-pyrimidin-5-yl}-pyrazol-1-yl)-cyclohexyl]-methanone] here?
A: Its IC50 is < 100 nM.

Q: Which IC50 does the source give for `CN1C[C@]2(CC[C@@H](n3cc(-c4cnc(-c5cccc(-c6cnn(C)c6)c5)nc4)cn3)CC2)CC1=O` [Example 262, cis-2-Methyl-8-(4-{2-[3-(1-methyl-1H-pyrazol-4-yl)-phenyl]-pyrimidin-5-yl}-pyrazol-1-yl)-2-aza-spiro[4.5]decan-3-one] here?
A: The IC50 was < 100 nM.

Q: For `CC(=O)N1CCC(n2cc(-c3cnc(-c4cccc(-c5cnn(C)c5)c4)nc3)cn2)C(F)C1` (stereo not drawn) [Example 263, Cis-1-[3-Fluoro-4-(4-{2-[3-(1-methyl-1H-pyrazol-4-yl)-phenyl]-pyrimidin-5-yl}-pyrazol-1-yl)-piperidin-1-yl]-ethanone], which IC50 is on record?
A: The IC50 was < 100 nM.

Q: For `Cn1cc(-c2cccc(-c3ncc(-c4cnn(C5CCC(C(=O)N6CCO[C@@H](CO)C6)CC5)c4)cn3)c2)cn1` (stereo partly drawn) [Example 266, ((R)-2-Hydroxymethyl-morpholin-4-yl)-[4-((S)-4-{2-[3-(1-methyl-1H-pyrazol-4-yl)-phenyl]-pyrimidin-5-yl}-pyrazol-1-yl)-cyclohexyl]-methanone], which IC50 is on record?
A: The IC50 was < 100 nM.

Q: For `Cn1cc(-c2cccc(-c3ncc(-c4cnn(C5CCOC6(CCOCC6)C5)c4)cn3)c2)cn1` (centres unmarked) [Example 267, 5-[1-(1,9-Dioxa-spiro[5.5]undec-4-yl)-1H-pyrazol-4-yl]-2-[3-(1-methyl-1H-pyrazol-4-yl)-phenyl]-pyrimidine], which IC50 is on record?
A: Its IC50 is < 100 nM.

Q: With `Cn1cc(-c2cccc(-c3ncc(-c4cnn([C@@H]5CCCN(S(C)(=O)=O)C5)c4)cn3)c2)cn1` [Example 268, 5-[(R)-1-(1-Methanesulfonyl-piperidin-3-yl)-1H-pyrazol-4-yl]-2-[3-(1-methyl-1H-pyrazol-4-yl)-phenyl]-pyrimidine] as the compound, how does the IC50 read?
A: The IC50 was < 100 nM.

Q: Which IC50 does the source give for `CC(=O)N1CCC[C@@H](n2cc(-c3cnc(-c4cccc(-c5cnn(C)c5)c4)nc3)cn2)C1` [Example 269, 1-[3-((R)-4-{2-[3-(1-Methyl-1H-pyrazol-4-yl)-phenyl]-pyrimidin-5-yl}-pyrazol-1-yl)-piperidin-1-yl]-ethanone] here?
A: The IC50 was < 100 nM.

Q: For `Cn1cc(-c2cccc(-c3ncc(-c4cnn(C5CCN(C6CCCOC6)CC5)c4)cn3)c2)cn1` (centres unmarked) [Example 270, 2-[3-(1-Methyl-1H-pyrazol-4-yl)-phenyl]-5-{1-[1-(tetrahydro-pyran-3-yl)-piperidin-4-yl]-1H-pyrazol-4-yl}-pyrimidine], which IC50 is on record?
A: Its IC50 is < 100 nM.

Q: With `Cn1cc(-c2cccc(-c3ncc(-c4cnn(C5CCOCC5CN5CCOCC5)c4)cn3)c2)cn1` (centres unmarked) [Example 271, 4-[4-(4-{2-[3-(1-Methyl-1H-pyrazol-4-yl)-phenyl]-pyrimidin-5-yl}-pyrazol-1-yl)-tetrahydro-pyran-3-ylmethyl]-morpholine] as the compound, how does the IC50 read?
A: The IC50 was 1000 to 5000 nM.

Q: With `CC1COCCC1N1CCC(n2cc(-c3cnc(-c4cccc(-c5cnn(C)c5)c4)nc3)cn2)CC1` (centres unmarked) [Example 275, 2-[3-(1-Methyl-1H-pyrazol-4-yl)-phenyl]-5-{1-[1-(3-methyl-tetrahydro-pyran-4-yl)-piperidin-4-yl]-1H-pyrazol-4-yl}-pyrimidine] as the compound, how does the IC50 read?
A: Its IC50 is < 100 nM.

Q: Which IC50 does the source give for `Cn1cc(-c2cccc(-c3ncc(-c4cnn(C5C6COCC5CC(CO)C6)c4)cn3)c2)cn1` (centres unmarked) [Example 276, [9-(4-{2-[3-(1-Methyl-1H-pyrazol-4-yl)-phenyl]-pyrimidin-5-yl}-pyrazol-1-yl)-3-oxa-bicyclo[3.3.1]non-7-yl]-methanol] here?
A: The IC50 was 100 to 1000 nM.

Q: Which IC50 does the source give for `CN1CC2CC1CN2C(=O)[C@H]1CC[C@H](n2cc(-c3cnc(-c4cccc(-c5cnn(C)c5)c4)nc3)cn2)CC1` (stereo partly drawn) [Example 278, (5-Methyl-2,5-diaza-bicyclo[2.2.1]hept-2-yl)-trans-[4-(-4-{2-[3-(1-methyl-1H-pyrazol-4-yl)-phenyl]-pyrimidin-5-yl}-pyrazol-1-yl)-cyclohexyl]-methanone hydrobromide] here?
A: The IC50 was < 100 nM.

Q: With `CC(=O)N1CCC(n2cc(-c3cnc(-c4cccc(-c5cnn(C)c5)c4)nc3)cn2)C(F)(F)C1` (centres unmarked) [Example 284, 1-[3,3-Difluoro-4-(4-{2-[3-(1-methyl-1H-pyrazol-4-yl)-phenyl]-pyrimidin-5-yl}-pyrazol-1-yl)-piperidin-1-yl]-ethanone] as the compound, how does the IC50 read?
A: Its IC50 is < 100 nM.

Q: With `Cn1cc(-c2cccc(-c3ncc(-c4cnn([C@H]5CC[C@]6(CCC(=O)N6C)CC5)c4)cn3)c2)cn1` [Example 285, Cis-1-Methyl-8-(4-{2-[3-(1-methyl-1H-pyrazol-4-yl)-phenyl]-pyrimidin-5-yl}-pyrazol-1-yl)-1-aza-spiro[4.5]decan-2-one] as the compound, how does the IC50 read?
A: Its IC50 is < 100 nM.

Q: Which IC50 does the source give for `Cn1cc(-c2cccc(-c3ncc(-c4cnn([C@H]5CC[C@H](NCCO)CC5)c4)cn3)c2)cn1` [Example 289, 2-trans-[4-(4-{2-[3-(1-Methyl-1H-pyrazol-4-yl)-phenyl]-pyrimidin-5-yl}-pyrazol-1-yl)-cyclohexylamino]-ethano] here?
A: Its IC50 is < 100 nM.

Q: Which IC50 does the source give for `Cc1nn(C2CCC(O)CC2)cc1-c1cnc(-c2cccc(-c3cnn(C)c3)c2)nc1` (centres unmarked) [Example 291, 4-(3-Methyl-4-{2-[3-(1-methyl-1H-pyrazol-4-yl)-phenyl]-pyrimidin-5-yl}-pyrazol-1-yl)-cyclohexanol] here?
A: Its IC50 is 100 to 1000 nM.

Q: For `Cn1cc(-c2ccc(F)c(-c3ncc(-c4cnn([C@H]5CC[C@H](O)CC5)c4)cn3)c2)cn1` [Example 292, 4-(4-{2-[2-Fluoro-5-(1-methyl-1H-pyrazol-4-yl)-phenyl]-pyrimidin-5-yl}-pyrazol-1-yl)-cyclohexanol], which IC50 is on record?
A: The IC50 was 100 to 1000 nM.

System: not given
Test: not given
Conditions: not given

Q: With `CN1CC2CC1CN2C(=O)[C@H]1CC[C@H](n2cc(-c3cnc(-c4cccc(-c5cnn(C)c5)c4)nc3)cn2)CC1` (stereo partly drawn) (as salt: hydrobromid) [Example 278, (5-Methyl-2,5-diaza-bicyclo[2.2.1]hept-2-yl)-trans-[4-(-4-{2-[3-(1-methyl-1H-pyrazol-4-yl)-phenyl]-pyrimidin-5-yl}-pyrazol-1-yl)-cyclohexyl]-methanone hydrobromide] as the compound, how does the melting point read?
A: The melting point was 50.3 to 55 °C.

Q: With `Cn1cc(-c2cccc(-c3ncc(-c4cnn([C@@H]5CCC[C@@H](O)C5)c4)cn3)c2)cn1` (relative stereo) [Example 290, Trans-3-(4-{2-[3-(1-Methyl-1H-pyrazol-4-yl)-phenyl]-pyrimidin-5-yl}-pyrazol-1-yl)-cyclohexanol] as the compound, how does the melting point read?
A: The melting point was 207.5 to 212 °C.
